# Laboratory results reported in ChEMBL document CHEMBL1201862, “PubChem BioAssay data set” (2004).
# Calls of active or inactive are those of the source.
# Assays:
# Coagulation factor XII [1] = biological target: T1, Coagulation factor XII (Homo sapiens, UniProt P00748); experiment: FXIIa inhibitor potency, concentration-response, biochemical (AID 716); type: functional
# T1 sequence (P00748 whole entry): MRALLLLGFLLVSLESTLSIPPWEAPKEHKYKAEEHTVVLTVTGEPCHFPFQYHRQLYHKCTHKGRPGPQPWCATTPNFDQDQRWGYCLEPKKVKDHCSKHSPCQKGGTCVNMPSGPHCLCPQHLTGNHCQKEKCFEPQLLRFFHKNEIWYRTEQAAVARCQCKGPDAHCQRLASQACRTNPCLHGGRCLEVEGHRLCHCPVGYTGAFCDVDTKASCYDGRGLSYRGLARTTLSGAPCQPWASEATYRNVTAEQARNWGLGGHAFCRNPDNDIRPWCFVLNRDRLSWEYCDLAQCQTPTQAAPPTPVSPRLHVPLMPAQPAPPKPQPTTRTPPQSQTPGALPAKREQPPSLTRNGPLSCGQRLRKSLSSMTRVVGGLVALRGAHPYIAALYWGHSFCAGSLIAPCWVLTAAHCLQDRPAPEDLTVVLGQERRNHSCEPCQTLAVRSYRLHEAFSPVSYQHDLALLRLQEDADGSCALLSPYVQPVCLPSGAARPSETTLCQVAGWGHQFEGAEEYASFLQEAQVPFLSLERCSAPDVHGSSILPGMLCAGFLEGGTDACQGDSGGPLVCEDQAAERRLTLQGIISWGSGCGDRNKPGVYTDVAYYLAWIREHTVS
# [2] = Vero E6 cell cytotoxicity, dose response, cytotoxicity control for non-replicating M. tuberculosis project, secondary assay (AID 492998); type: functional, VeroE6; details: Vero C1008
# [3] = THP-1 cell cytotoxicity, dose response, cytotoxicity control for non-replicating M. tuberculosis project (AID 489025); type: functional
# [4] = Luminescence Cell-Based Dose Response HTS to Identify Inhibitors of 5'UTR Stem-Loop Driven Prion Protein mRNA Translation in H4 Neuroglioblastoma Cells. [Related pubchem assays: 1827 (Project Summary), 1813 (Primary HTS)]; type: functional
# [5] = inhibitors of intracellular T. cruzi replication, confirmation, NIH3T3 host cells, beta-gal luminescence (AID 2044); type: functional, cell-based;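 also: intracellular parasites grown in NIH/3T3 mouse fibroblasts as host cells; luminescent beta-galactosidase reporter signal from transgenic T. cruzi replicating inside host cells; inhibitors lower the luminescence signal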
# [6] = inhibitors of firefly luciferase expression or activity, dose response, H4 neuroglioma cells, luminescence (AID 1990); type: functional, cell-based
# HEK293 [7] = experiment: cells; type: functional, cell-based; details: Homo sapiens
# HEK293 [8] = experiment: cells; type: functional, cell-based; details: Homo sapiens; remark: listed apart in the source
# cells = type: functional
# HEK293 [9] = experiment: NOD1 signaling inhibitors, primary screen, cell-based, luminescence, uHTS (AID 1578); type: functional; details: Homo sapiens
# HEK293 [10] = experiment: NOD2 signaling inhibitors in MDP-stimulated cells, cell-based, uHTS, luminescence (AID 2001); type: functional; details: Homo sapiens
# [11] = cytotoxicity toward NIH3T3 fibroblasts, dose response, counter-screen, cell-based, ATP luminescence, mouse fibroblasts (AID 2010); type: functional;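 also: cells exposed to compound for about 90 hours before reading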
# [12] = inhibitors of SNCA 5'UTR-driven reporter translation, confirmation, H4 neuroglioma cells, luminescence (AID 1988); type: functional, cell-based
# INS1 = experiment: beta cell apoptosis inhibitors, cytokine rescue, dose response, luminescence, retest (AID 449756); type: functional, cell-based; details: Rattus norvegicus;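 also: cell death triggered by IL-1 beta plus TNF-alpha plus IFN-gamma mixture; protective hits raise ATP signal compared with cytokine alone wells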
# [13] = microbe, parasite or virus in culture; type: functional; details: Mycobacterium tuberculosis
# HEK293 [14] = experiment: cells; type: functional, cell-based; details: Homo sapiens; remark: listed apart in the source
# [15] = biological target: Nucleotide-binding oligomerization domain-containing protein 2 (Homo sapiens, UniProt Q9HC29); experiment: NOD2 signaling inhibitors, cell-based, luminescence, uHTS, HEK293 (AID 1566); type: functional
# [16] = biological target: T2, G-protein coupled receptor 55 (Homo sapiens, UniProt Q9Y2T6); experiment: GPR55 antagonists blocking LPI-driven arrestin recruitment, primary screen, imaging, U2OS, beta-arrestin-GFP, LPI agonist (AID 2013); type: functional;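 also: antagonist potency measured as reduced agonist-driven arrestin aggregation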
# [17] = biological target: T2, G-protein coupled receptor 55; experiment: GPR55 agonists via beta-arrestin recruitment, primary screen, imaging, U2OS cells, beta-arrestin-GFP redistribution (AID 1961); type: functional
# Vero [18] = experiment: Vero E6 cell cytotoxicity, SAR follow-up, cytotoxicity control for West Nile virus antiviral project, synthesized analogs (AID 2244); type: functional; details: Chlorocebus sabaeus
# Vero [19] = experiment: cytotoxicity of synthesized analogs in Vero 76, SAR follow-up, cytotoxicity control for West Nile virus antiviral project, Vero 76 cells (AID 2414); type: functional; details: Chlorocebus sabaeus
# Vero [20] = experiment: West Nile virus CPE inhibition, SAR follow-up, cell-based, synthesized analogs (AID 2238); type: functional; details: Chlorocebus sabaeus
# Coagulation factor XII [21] = biological target: T1, Coagulation factor XII; experiment: Factor XIIa Dose Response Confirmation from Single Well HTS. [Related pubchem assays (depositor defined):AID701]; type: functional
# [22] = cytotoxicity in HPDE-C7 cells, cell-based, fluorescence, HTS (AID 430); type: functional; details: Homo sapiens
# [23] = biological target: T3, Short transient receptor potential channel 4 (Mus musculus, UniProt Q9QUQ5); experiment: TRPC4 positive allosteric modulators, dose response, cell-based, HEK293 TRPC4/mu-opioid, Fluo-4 calcium, EC20 DAMGO (AID 434941); type: functional
# T3 sequence (Q9QUQ5 whole entry): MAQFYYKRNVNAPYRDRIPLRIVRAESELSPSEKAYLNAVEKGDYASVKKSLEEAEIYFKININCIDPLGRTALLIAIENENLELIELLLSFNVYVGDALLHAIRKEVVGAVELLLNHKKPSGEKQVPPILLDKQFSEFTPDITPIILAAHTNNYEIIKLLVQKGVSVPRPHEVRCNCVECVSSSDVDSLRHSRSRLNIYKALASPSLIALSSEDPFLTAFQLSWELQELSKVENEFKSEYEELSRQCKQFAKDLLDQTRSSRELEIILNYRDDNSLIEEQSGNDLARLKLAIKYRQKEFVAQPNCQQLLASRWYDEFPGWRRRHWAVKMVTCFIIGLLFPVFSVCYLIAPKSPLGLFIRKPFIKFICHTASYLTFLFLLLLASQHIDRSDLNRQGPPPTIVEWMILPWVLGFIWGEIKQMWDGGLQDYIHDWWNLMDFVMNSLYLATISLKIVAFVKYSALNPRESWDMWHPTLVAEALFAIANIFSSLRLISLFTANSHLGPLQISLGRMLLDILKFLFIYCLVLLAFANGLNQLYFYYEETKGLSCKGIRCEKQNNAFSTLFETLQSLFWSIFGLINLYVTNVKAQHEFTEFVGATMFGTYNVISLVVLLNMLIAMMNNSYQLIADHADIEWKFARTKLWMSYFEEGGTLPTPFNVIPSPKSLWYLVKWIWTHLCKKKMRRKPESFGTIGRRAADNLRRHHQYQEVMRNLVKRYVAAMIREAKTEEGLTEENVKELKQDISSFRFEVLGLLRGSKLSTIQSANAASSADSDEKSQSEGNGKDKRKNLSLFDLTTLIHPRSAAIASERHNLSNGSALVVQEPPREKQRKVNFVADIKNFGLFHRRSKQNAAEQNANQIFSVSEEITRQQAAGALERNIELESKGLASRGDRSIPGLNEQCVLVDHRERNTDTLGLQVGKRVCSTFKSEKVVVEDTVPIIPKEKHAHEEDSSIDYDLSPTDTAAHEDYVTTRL
# [24] = cytotoxicity in KRAS-transformed pancreatic duct cells, primary screen, cell-based, fluorescence, HTS (AID 431); type: functional; details: Homo sapiens;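 also: cell line used: HPDE-C7K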
# [25] = ZM109 Env clade C HIV-1 fusion inhibitors, dose response, HeLa effector, CEM target cells, luciferase, cherry-pick (AID 652058); type: functional, cell-based
# [26] = off-target signal loss in HeLa-CEM21 co-culture – HeLa F-luc CTL cells, cherry-picked, counter-screen for HIV-1 Env fusion inhibitor project, dose response (AID 652040); type: functional, cell-based;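 also: potency for signal decrease marking cytotoxic or nonspecific inhibition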
# [27] = biological target: T4, Type-1 angiotensin II receptor (Homo sapiens, UniProt P30556); experiment: AT1 receptor agonists, dose response, selectivity assay for APJ receptor agonist project, cell-based, uHTS hits (AID 488865); type: functional;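 also: beta-arrestin recruitment to AT1 measured by enzyme fragment complementation luminescence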
# T4 sequence (P30556 whole entry): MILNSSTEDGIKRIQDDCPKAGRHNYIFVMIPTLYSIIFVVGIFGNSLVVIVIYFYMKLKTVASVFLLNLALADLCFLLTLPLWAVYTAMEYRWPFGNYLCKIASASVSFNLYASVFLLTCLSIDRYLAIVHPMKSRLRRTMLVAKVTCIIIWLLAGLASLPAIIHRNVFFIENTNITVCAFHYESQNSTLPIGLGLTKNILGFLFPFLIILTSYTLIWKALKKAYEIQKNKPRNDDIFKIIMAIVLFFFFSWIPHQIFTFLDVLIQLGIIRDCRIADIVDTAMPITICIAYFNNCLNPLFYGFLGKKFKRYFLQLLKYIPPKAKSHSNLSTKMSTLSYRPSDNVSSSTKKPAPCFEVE
# [28] = biological target: T5, Ubiquitin-conjugating enzyme E2 N (Homo sapiens, UniProt P61088); type: functional
# T5 sequence (P61088 whole entry): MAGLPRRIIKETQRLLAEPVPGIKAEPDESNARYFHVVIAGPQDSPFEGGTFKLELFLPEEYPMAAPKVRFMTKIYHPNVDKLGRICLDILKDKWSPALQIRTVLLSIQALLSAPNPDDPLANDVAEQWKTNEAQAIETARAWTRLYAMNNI
# Bcl-2-related protein A1 = biological target: T6, Bcl-2-related protein A1 (Mus musculus, UniProt Q07440); type: functional;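 also: confirmatory dose–response counterscreen on Bfl-1, used to check hits from a UBC13 polyubiquitin inhibitor campaign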
# T6 sequence (Q07440 whole entry): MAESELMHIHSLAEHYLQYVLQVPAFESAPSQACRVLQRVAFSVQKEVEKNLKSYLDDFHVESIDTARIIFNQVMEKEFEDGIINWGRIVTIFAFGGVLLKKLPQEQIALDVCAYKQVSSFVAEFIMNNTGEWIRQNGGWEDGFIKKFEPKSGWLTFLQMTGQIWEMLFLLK
# BJ [29] = experiment: cytotoxicity toward BJ-TERT-LT-ST fibroblasts, dose response, cell-based, RAS-independent, luminescence (AID 1935); type: functional; details: Homo sapiens;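 also: BJ fibroblasts immortalized with TERT plus LT and ST oncogenes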
# [30] = cytotoxicity toward DRD oncogenic fibroblasts, dose response, cell-based, non-viral oncogenic, luminescence (AID 1934); type: functional; details: Homo sapiens
# [31] = inhibitors of HIV Env-driven cell fusion, dose response, cherry-pick (AID 652057); type: functional, cell-based
# [32] = biological target: T5, Ubiquitin-conjugating enzyme E2 N; type: functional; remark: listed apart in the source
# BJ [33] = experiment: cells; type: functional, cell-based; details: Homo sapiens
# [34] = inhibitors of clade B AD8 Env fusion, dose response, cell-based, cherry-pick (AID 652062); type: functional;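 also: luciferase signal from cell-cell fusion driven by HIV-1 clade B AD8 Env; potency is for inhibitors of fusion seen as a drop in luminescence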
# [35] = CEM21 lymphoblast cell cytotoxicity, dose response, cytotoxicity control for viral fusion inhibitor project, CellTiter-Glo luminescence, cherry-picked (AID 652042); type: functional, cell-based;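 also: potency for signal decrease meaning cytotoxicity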
# BJ [36] = experiment: cytotoxicity toward BJ-TERT fibroblasts, dose response, cell-based, RAS-independent, luminescence (AID 1933); type: functional; details: Homo sapiens
# T2 sequence (Q9Y2T6 whole entry): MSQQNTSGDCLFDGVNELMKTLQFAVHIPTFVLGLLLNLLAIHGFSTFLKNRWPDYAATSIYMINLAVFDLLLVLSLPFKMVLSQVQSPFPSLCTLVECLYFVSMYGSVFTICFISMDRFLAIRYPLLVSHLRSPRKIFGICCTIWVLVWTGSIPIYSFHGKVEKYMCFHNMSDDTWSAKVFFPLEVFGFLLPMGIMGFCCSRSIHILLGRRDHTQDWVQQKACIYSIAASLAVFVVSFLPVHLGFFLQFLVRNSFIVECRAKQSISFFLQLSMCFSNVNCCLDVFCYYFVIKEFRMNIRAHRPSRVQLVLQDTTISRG
# Chain of Nucleotide-binding oligomerization domain-containing protein 2 (Q9HC29 whole entry, the tested form may be a part): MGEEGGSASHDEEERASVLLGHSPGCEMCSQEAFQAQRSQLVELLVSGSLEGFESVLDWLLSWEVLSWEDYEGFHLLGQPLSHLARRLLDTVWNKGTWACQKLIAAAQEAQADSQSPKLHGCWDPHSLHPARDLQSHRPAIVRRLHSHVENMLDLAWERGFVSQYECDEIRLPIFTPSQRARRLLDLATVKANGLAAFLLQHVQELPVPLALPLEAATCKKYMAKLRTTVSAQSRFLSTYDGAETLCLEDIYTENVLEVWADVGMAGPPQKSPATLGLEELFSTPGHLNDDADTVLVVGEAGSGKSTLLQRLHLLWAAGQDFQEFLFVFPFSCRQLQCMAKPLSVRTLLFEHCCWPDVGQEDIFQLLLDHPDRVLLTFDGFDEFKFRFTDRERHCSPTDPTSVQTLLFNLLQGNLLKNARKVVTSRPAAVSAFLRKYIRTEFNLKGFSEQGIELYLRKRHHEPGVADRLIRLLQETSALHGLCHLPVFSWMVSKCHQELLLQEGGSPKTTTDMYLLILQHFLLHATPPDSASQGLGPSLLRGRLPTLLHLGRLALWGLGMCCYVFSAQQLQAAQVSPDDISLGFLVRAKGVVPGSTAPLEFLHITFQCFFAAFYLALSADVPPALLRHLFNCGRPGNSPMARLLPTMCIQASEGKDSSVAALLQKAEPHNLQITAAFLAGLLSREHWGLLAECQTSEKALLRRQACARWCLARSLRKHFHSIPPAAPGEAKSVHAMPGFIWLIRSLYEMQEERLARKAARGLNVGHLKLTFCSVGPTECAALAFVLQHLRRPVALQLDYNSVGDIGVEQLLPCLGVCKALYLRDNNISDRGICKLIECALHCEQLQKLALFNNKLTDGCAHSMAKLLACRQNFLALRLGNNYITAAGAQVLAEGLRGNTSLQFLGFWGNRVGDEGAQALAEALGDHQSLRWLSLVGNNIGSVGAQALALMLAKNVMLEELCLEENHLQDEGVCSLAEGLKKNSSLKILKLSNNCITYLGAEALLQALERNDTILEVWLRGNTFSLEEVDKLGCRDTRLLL
structure (smiles),measurement,setting,value
Cc1c(C(=O)OCCOC(C)C)[nH]c2c1C(=O)CC(C)(C)C2,IC50,Coagulation factor XII [1],> 50 µM (inactive)
Cc1cc(N/N=C/c2ccccc2[N+](=O)[O-])nc(-n2nc(C)cc2C)n1,CC50,[2],6.96 µM (active)
same,CC50,[3],4.01 µM (active)
same,EC50,[4],13.1 µM (active)
same,EC50,[5],2.26 µM (active)
same,EC50,[6],13.3 µM (active)
same,IC50,HEK293 [7],15.6 µM (active)
same,IC50,HEK293 [8],> 20 µM (inactive)
same,IC50,cells,0.6 µM (active)
same,EC50,HEK293 [9],6.21 µM (active)
same,IC50,HEK293 [10],6.54 µM (inactive)
same,EC50,[11],7.48 µM (active)
same,EC50,[12],> 120 µM (not active)
same,AC50,INS1,2.77 µM (active)
same,CC50,[13],15.5 µM (active)
same,IC50,HEK293 [14],> 20 µM (inactive)
same,EC50,[15],> 20 µM (inactive)
N#C/C(=C/c1c[nH]nc1-c1cccc(Br)c1)C(=O)O,IC50,[16],1.12 µM (active)
COc1ccccc1OCC(=O)/C=C1/N(C)c2ccccc2C1(C)C,EC50,[17],5.48 µM (active)
O=C(CSc1nc2ccccc2c(=O)n1-c1ccccc1)Nc1ccc2c(c1)CCC2,CC50,Vero [18],> 40 µM (active)
same,CC50,Vero [19],> 66.6 µM (active)
same,IC50,Vero [20],15.5 µM (active)
Cc1ccc(NC(=O)C2(S(=O)(=O)c3ccc(C)cc3)CC2)cc1,IC50,Coagulation factor XII [21],> 50 µM (inactive)
CCCC1(c2ccccc2)NC(=O)N(CC(=O)c2[nH]c(C)c(C(=O)OCC)c2C)C1=O (stereo unspecified),EC50,[22],> 20 µM (not active)
same,EC50,[23],2.66 µM (active)
same,EC50,[24],> 20 µM (not active)
COc1ccc2sc(N(CCCN(C)C)C(=O)c3ccc(S(=O)(=O)N4CCc5ccccc5C4)cc3)nc2c1,AC50,[25],9.11 µM (active)
same,AC50,[26],8.3 µM (active)
same,EC50,[27],> 100 µM (inactive)
same,IC50,[28],8.44 µM (active)
same,EC50,[5],0.228 µM (active)
same,IC50,Bcl-2-related protein A1,> 20 µM (inactive)
same,EC50,BJ [29],4.5 µM (inconclusive)
same,EC50,[30],5.14 µM (inconclusive)
same,AC50,[31],6.44 µM (active)
same,IC50,[32],8.54 µM (active)
same,EC50,BJ [33],10 µM (active)
same,AC50,[34],6.84 µM (active)
same,AC50,[35],3.7 µM (active)
same,EC50,[11],5.73 µM (active)
same,EC50,BJ [36],2.75 µM (inconclusive)
